From ChEMBL document CHEMBL4177632

Columns and labels:
Rattus norvegicus = organism: Rattus norvegicus; assay: Selectivity index, ratio of IC50 for ALR1 in Wistar rat kidney to IC50 for ALR2 in Wistar rat eye lens
[1] = target: Aldo-keto reductase family 1 member B1 (Rattus norvegicus) (UniProt P07943); assay: Inhibition of ALR2 in Wistar rat lens assessed as reduction in glucose induced-sorbitol accumulation by measuring sorbitol level at 0.1 uM preincubated for 30 mins followed by glucose addition measured after 3 hrs by resazurin dye based fluorescence assay (reference value: 803.6 +/- 104.6 nmol/g)
[2] = target: Aldo-keto reductase family 1 member B1 (Rattus norvegicus) (UniProt P07943); assay: Inhibition of ALR2 in Wistar rat lens assessed as reduction in glucose induced-sorbitol accumulation by measuring sorbitol level at 1 uM preincubated for 30 mins followed by glucose addition measured after 3 hrs by resazurin dye based fluorescence assay (reference value: 803.6 +/- 104.6 nmol/g)
[3] = target: Aldo-keto reductase family 1 member B1 (Rattus norvegicus) (UniProt P07943); assay: Inhibition of ALR2 in Wistar rat lens assessed as reduction in glucose induced-sorbitol accumulation by measuring sorbitol level at 100 uM preincubated for 30 mins followed by glucose addition measured after 3 hrs by resazurin dye based fluorescence assay (reference value: 803.6 +/- 104.6 nmol/g)
[4] = target: Aldo-keto reductase family 1 member B1 (Rattus norvegicus) (UniProt P07943); assay: Inhibition of ALR2 in Wistar rat lens assessed as reduction in glucose induced-sorbitol accumulation by measuring sorbitol level preincubated for 30 mins followed by glucose addition measured after 3 hrs by resazurin dye based fluorescence assay
[5] = system: CCOC(=O)N1CCc2c(c3cc(OC)ccc3n2CC(=O)O)C1; assay: Inhibition of recombinant human AKR1B1 assessed as Km for D,L-glyceraldehyde substrate at 80 nM (reference value: 0.065+/- 0.003 […])
[6] = system: CCOC(=O)N1CCc2c(c3cc(OC)ccc3n2CC(=O)O)C1; assay: Inhibition of recombinant human AKR1B1 assessed as Km for D,L-glyceraldehyde substrate at 120 nM (reference value: 0.065+/- 0.003 […])

CC(=O)N1CCc2c(c3ccccc3n2CC(=O)O)C1
Ratio IC50 (Rattus norvegicus): 1070 | Activity [1]: 756 nmol/g | Activity [2]: 631 nmol/g | Activity [3]: 184 nmol/g | inhibition [4]: Dose-dependent effect

CCOC(=O)N1CCc2c(c3cc(OC)ccc3n2CC(=O)O)C1
Ratio IC50 (Rattus norvegicus): 792 | Activity [1]: 657 nmol/g | Activity [2]: 440 nmol/g | Activity [3]: 249 nmol/g | inhibition [4]: Dose-dependent effect

Cc1c(C=O)c2ccccc2n1CC(=O)O
Ratio IC50 (Rattus norvegicus): 35

O=C(O)Cn1c2c(c3ccccc31)CN(C(=O)C1CC1)CC2
Ratio IC50 (Rattus norvegicus): 131

Aldo-keto reductase family 1 member B1 (Homo sapiens) (from UniProt P15121)
Km [5]: 36 µM | Km [6]: 22 µM

CCOC(=O)N1CCc2c(c3cc(C(=O)O)ccc3n2CC(=O)O)C1
Ratio IC50 (Rattus norvegicus): 381

CC(=O)c1c(C)n(CC(=O)O)c2ccccc12
Ratio IC50 (Rattus norvegicus): 66
